Reference: PMC3469775 (Journal of medicinal chemistry, 2012)

Molecular target: T1, human placental aromatase (Homo sapiens, UniProt P11511)
T1 sequence (P11511 1-503): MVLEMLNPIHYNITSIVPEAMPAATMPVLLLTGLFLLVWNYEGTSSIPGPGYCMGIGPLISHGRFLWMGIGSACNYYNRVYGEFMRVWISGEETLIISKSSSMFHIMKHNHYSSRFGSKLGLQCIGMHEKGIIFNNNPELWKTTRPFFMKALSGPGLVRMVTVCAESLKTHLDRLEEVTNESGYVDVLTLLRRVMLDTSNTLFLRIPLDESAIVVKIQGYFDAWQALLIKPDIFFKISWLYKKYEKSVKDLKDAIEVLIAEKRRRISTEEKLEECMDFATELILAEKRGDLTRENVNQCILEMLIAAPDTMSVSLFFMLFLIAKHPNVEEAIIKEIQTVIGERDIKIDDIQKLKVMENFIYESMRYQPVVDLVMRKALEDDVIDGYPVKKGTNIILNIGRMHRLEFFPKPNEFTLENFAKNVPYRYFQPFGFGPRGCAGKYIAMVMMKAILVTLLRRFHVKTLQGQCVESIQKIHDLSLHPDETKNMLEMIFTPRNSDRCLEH
Experiment: Inhibition of purified human placental aromatase
Type: biochemical
Conditions: for fold less potent than the AIs (IC50): compared with the AIs; for IC50 (in words): purified placental aromatase

SMILES	inhibition at 300 µM (read-out: inhibition of the enzyme activity)	fold less potent than the AIs (IC50)	IC50 (in words)
CC#CCO[C@@H]1C[C@@H]2[C@H](CC[C@]3(C)C(=O)CC[C@@H]23)[C@@]2(C)C=CC(=O)C=C12 [Compound 4, (6R,8R,9S,10R,13S,14S)-6-(But-2-ynyloxy)-10,13-dimethyl-7,8,9,10,11,12,13,14,15,16-decahydro-3H-cyclopenta[a]-phenanthrene-3,17(6H)-dione]	93%		
CCO[C@@H]1C[C@@H]2[C@H](CC[C@]3(C)C(=O)CC[C@@H]23)[C@@]2(C)C=CC(=O)C=C12 [Compound 3, (6R,8R,9S,10R,13S,14S)-6-Ethoxy-10,13-dimethyl-7,8,9,10,11,12,13,14,15,16-decahydro-3H-cyclopenta[a]-phenanthrene-3,17(6H)-dione]		about 1000 fold	several micromolar
CO[C@@H]1C[C@@H]2[C@H](CC[C@]3(C)C(=O)CC[C@@H]23)[C@@]2(C)C=CC(=O)C=C12 [Compound 2, (6R,8R,9S,10R,13S,14S)-6-Methoxy-10,13-dimethyl-7,8,9,10,11,12,13,14,15,16-decahydro-3H-cyclopenta[a]-phenanthrene-3,17(6H)-dione]		about 1000 fold	several micromolar
